Results taken from patent publication US9718822B2, “Macrocyclic compounds as Trk kinase inhibitors” (Array BioPharma, Inc., priority 2010, dated 2017).
Where two headings read alike, the source gives them in different places.

What was measured:
[1] = not given; remark: listed apart in the source
[2] = biological target: His-tagged recombinant human TrkA (cytoplasmic domain) (Homo sapiens (Human), UniProt P04629); assay: TrkA Binding Assay (LanthaScreen Eu Kinase Binding Assay)
Description: The ability of a compound to bind to TrkA was measured by Invitrogen's LanthaScreen™ Eu Kinase Binding Assay. […] After a 60-minute incubation at 22° C., the reaction was measured using the EnVision via TR-FRET dual wavelength detection, and the POC was calculated from the emission ratio. The compound dose response data was fit to a 4-parameter logistic model and IC50 was defined as the concentration of compound at 50 POC.

[3] = biological target: histidine-tagged recombinant human TrkA, cytoplasmic domain (Homo sapiens (Human), UniProt P04629); assay: TrkA ELISA Assay; format: biochemical; conditions: read-out: TrkA Elisa Enzyme Assay IC50; further: 2.5 nM TrkA
Chain of histidine-tagged recombinant human TrkA, cytoplasmic domain (P04629 440-796): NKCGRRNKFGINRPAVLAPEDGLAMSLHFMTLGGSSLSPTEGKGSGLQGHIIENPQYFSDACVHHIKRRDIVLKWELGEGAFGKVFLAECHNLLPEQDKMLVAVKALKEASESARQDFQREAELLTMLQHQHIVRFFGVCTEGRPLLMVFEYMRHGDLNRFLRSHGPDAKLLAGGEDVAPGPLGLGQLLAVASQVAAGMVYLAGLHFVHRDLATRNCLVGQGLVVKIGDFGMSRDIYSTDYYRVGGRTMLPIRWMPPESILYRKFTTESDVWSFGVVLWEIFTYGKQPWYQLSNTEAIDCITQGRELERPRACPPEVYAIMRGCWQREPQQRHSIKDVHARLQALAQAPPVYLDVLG
Description: An enzyme-linked immunosorbant assay (ELISA) was used to assess TrkA kinase activity in the presence of inhibitors. Immulon 4HBX 384-well microtiter plates (Thermo part #8755) were coated with a 0.025 mg/mL solution of poly (Glu, Ala, Tyr; 6:3:1; Sigma P3899). […] The assay buffer consisted of 25 mM MOPS pH 7.5, 0.005% (v/v) Triton X-100 and 5 mM MgCl2. The reaction mixture was removed from the plate by washing with PBS containing 0.1% (v/v) Tween 20. The phosphorylated reaction product was detected using 0.2 μg/mL of a phosphotyrosine specific monoclonal antibody (clone PY20) conjugated to horseradish peroxidase in conjunction with the TMB Peroxidase Substrate System (KPL). After the addition of 1M phosphoric acid, the chromogenic substrate color intensity was quantitated via absorbance at 450 nm. IC50 values were calculated using either a 4 or 5-parameter logistic curve fit.
Table 1 provides averaged IC50 values for compounds of the invention when tested in this assay.

Chain of His-tagged recombinant human TrkA (cytoplasmic domain) (P04629 440-796): as above

SMILES | IC50 [2] [nM] | IC50 [3] [nM] | further results
C[C@@H]1CNC(=O)c2cnn3ccc(nc23)N2CCC[C@@H]2c2cc(F)cn(c2=O)C1 [Example 34, (6R,13R)-9-fluoro-13-methyl-2,11,15,19,20,23-hexaazapentacyclo [15.5.2.1^7,11.0^2,6.0^20,24]pentacosa-1(23),7,9,17(24),18,21-hexaene-16,25-dione] | 1 to 100 |  | ring closure, yield of all isomers (from COC(=O)c1cnn2ccc(N3CCC[C@@H]3c3cc(F)cn(C[C@H](C)CN)c3=O)nc12, amide bond, HATU, DMF, […], 3.0 h, 2 steps): 10%; ring closure, isolated yield ([1]; from C[C@H](CN)Cn1cc(F)cc([C@H]2CCCN2c2ccn3ncc(C(=O)O)c3n2)c1=O, amide bond, 14-membered ring, HATU/DIEA, DMF, […], 3.0 h, 2 steps): 10%
O=C1NCCCn2cc(F)cc(c2=O)[C@H]2CCCN2c2ccn3ncc1c3n2 [Example 1, (6R)-9-fluoro-2,11,15,19,20,23-hexaazapentacyclo[15.5.2.1^7,11.0^2,6.0^20,24]pentacosa-1(23),7,9,17(24),18,21-hexaene-16,25-dione] | 1 to 100 | 1 to 100 | ring closure, yield of all isomers (from NCCCn1cc(F)cc([C@H]2CCCN2c2ccn3ncc(C(=O)O)c3n2)c1=O, amide bond, EDCI/HOBt, DCM, 26.7 mM, 25.0 °C, 6.0 h): 39%; ring closure, isolated yield ([1]; from NCCCn1cc(F)cc([C@H]2CCCN2c2ccn3ncc(C(=O)O)c3n2)c1=O, amide bond, 14-membered ring, EDCI/HOBt/TEA, DMF/DCM 1:2, 26.7 mM, 6.0 h): 39%
CN1CCCOc2ncc(F)cc2[C@H]2CCCN2c2ccn3ncc(c3n2)C1=O [Example 18, (6R)-9-fluoro-17-methyl-13-oxa-2,11,17,21,22,25-hexaazapentacyclo[17.5.2.0^2,6.0^7,12.0^22,26]hexacosa-1(25),7,9,11,19(26),20,23-heptaen-18-one] | 1 to 100 | 1 to 100 | ring closure, yield of all isomers (from CN(CCCCl)C(=O)c1cnn2ccc(N3CCC[C@@H]3c3cc(F)c[nH]c3=O)nc12, ether bond, Cs2CO3, DMF, 10.0 mM, 90.0 °C, 0.25 h): 36%
O=C1NC[C@@H](O)COc2ncc(F)cc2[C@H]2CCCN2c2ccn3ncc1c3n2 [Example 7, (6R,15R)-9-fluoro-15-hydroxy-13-oxa-2,11,17,21,22,25-hexaazapentacyclo-[17.5.2.0^2,6.0^7,12.0^22,26]hexacosa-1(25),7,9,11,19(26),20,23-heptaen-18-one] | 1 to 100 | 1 to 100 | ring closure, yield of all isomers (from O=C(NC[C@@H](O)CCl)c1cnn2ccc(N3CCC[C@@H]3c3cc(F)c[nH]c3=O)nc12, ether bond, Cs2CO3, DMF, 98.6 mM, 85.0 °C, 1.0 h): 40%
O=C1NCCCOc2ncc(F)cc2[C@H]2CCCN2c2ccn3ncc1c3n2 [Example 3, (6R)-9-fluoro-13-oxa-2,11,17,21,22,25-hexaazapentacyclo[17.5.2.0^2,6.0^7,12.0^22,26]hexacosa-1(25),7,9,11,19(26),20,23-heptaen-18-one] | 1 to 100 | 1 to 100 | ring closure, yield of all isomers (from O=C(NCCCCl)c1cnn2ccc(N3CCC[C@@H]3c3cc(F)cnc3O)nc12, ether bond, Cs2CO3, DMF, […], 85.0 °C, 16.0 h): 44%
O=C1NCCCOc2ccc(F)cc2[C@H]2CCCN2c2ccn3ncc1c3n2 [Example 20, (6R)-9-fluoro-13-oxa-2,17,21,22,25-pentaazapentacyclo[17.5.2.0^2,6.0^7,12.0^22,26]hexacosa-1(25),7,9,11,19(26),20,23-heptaen-18-one] | 1 to 100 | 1 to 100 | ring closure, yield of all isomers (from CCOC(=O)c1cnn2ccc(N3CCC[C@@H]3c3cc(F)ccc3OCCCN)nc12, amide bond, DIEA, EtOH, 230.0 mM, 200.0 °C): 50%
O=C1Nc2ccnn2CCOc2ncc(F)cc2[C@H]2CCCN2c2ccn3ncc1c3n2 [Example 38, (6R)-9-fluoro-13-oxa-2,11,16,17,21,25,26,29-octaazahexacyclo [21.5.2.0^2,6.0^7,12.0^16,20.0^26,30]triaconta-1(29),7,9,11,17,19,23(30),24,27-nonaen-22-one] | 1 to 100 |  | ring closure, yield of all isomers (from COc1ncc(F)cc1[C@H]1CCCN1c1ccn2ncc(C(=O)Nc3ccnn3CCO[Si](c3ccccc3)(c3ccccc3)C(C)(C)C)c2n1, ether bond, DEAD/PPh3, THF, 14.25 mM, 25.0 °C, 18.0 h, 2 steps): 1.5%; ring closure, isolated yield ([1]; from O=C(Nc1ccnn1CCO)c1cnn2ccc(N3CCC[C@@H]3c3cc(F)cnc3O)nc12, ether bond, 15-membered ring, DEAD/PPh3, THF, 14.3 mM, 2 steps): 1.5%
O=C1NOCCOc2ncc(F)cc2[C@H]2CCCN2c2ccn3ncc1c3n2 [Example 16, (6R)-9-fluoro-13,16-dioxa-2,11,17,21,22,25-hexaazapentacyclo [17.5.2.0^2,6.0^7,12.0^22,26]hexacosa-1(25),7,9,11,19(26),20,23-heptaen-18-one] | 1 to 100 | 1 to 100 | ring closure, yield of all isomers (from O=C(NOCCCl)c1cnn2ccc(N3CCC[C@@H]3c3cc(F)c[nH]c3=O)nc12, ether bond, Cs2CO3, DMF, 100.0 mM, 90.0 °C, […]): 1%
O=C1OCCn2cc(F)cc(c2=O)[C@H]2CCCN2c2ccn3ncc1c3n2 [Example 15, (6R)-9-fluoro-14-oxa-2,11,18,19,22-pentaazapentacyclo[14.5.2.1^7,11.0^2,6.0^19,23]tetracosa-1(22),7,9,16(23), 17,20-hexaene-15,24-dione] |  | 100 to 3000 | ring closure, isolated yield ([1]; from O=C(OCCCl)c1cnn2ccc(N3CCC[C@@H]3c3cc(F)c[nH]c3=O)nc12, ether bond, 13-membered ring, Cs2CO3, DMF, 22.2 mM, 90.0 °C, 16.0 h): 22%
O=C1NC[C@H](O)Cn2cc(F)cc(c2=O)[C@H]2CCCN2c2ccn3ncc1c3n2 [Example 5, (6R,13S)-9-fluoro-13-hydroxy-2,11,15,19,20,23-hexaazapentacyclo-[15.5.2.1^7,11.0^2,6.0^20,24]pentacosa-1(23),7,9,17(24),18,21-hexaene-16,25-dione] | 1 to 100 | 1 to 100 | ring closure, yield of all isomers (from O=C(NC[C@H](O)CCl)c1cnn2ccc(N3CCC[C@@H]3c3cc(F)c[nH]c3=O)nc12, amine bond, Cs2CO3, DMF, […], 85.0 °C, 2.0 h): 27%; ring closure, isolated yield ([1]; from O=C(NC[C@H](O)CCl)c1cnn2ccc(N3CCC[C@@H]3c3cc(F)c[nH]c3=O)nc12, other bond, 14-membered ring, Cs2CO3, DMF, […], 85.0 °C, 2.0 h): 12%
